In patent US9765069B2, “Antimicrobial compounds” (OXFORD UNIVERSITY INNOVATION LIMITED, priority 2012, dated 2017):
Values after ≈ are worked out from the molar mass of the structure shown. Read-outs that look alike come from different tables or passages of the source.

How the values were obtained:
H3 = test: MIC determination (bacteria), strain H3; type: cell-based, H. influenzae; settings: Table 2, haemophilus test medium; for MIC: Haemophilus influenzae
Procedure: (§1) MIC determination (bacteria); MICs were determined based on Clinical and Laboratory Standards Institute (CLSI) methodology (Methods for dilution antimicrobial susceptibility tests for bacteria that grow aerobically; Approved Standard—seventh edition. 2006, M7-A7, CLSI, Wayne Pa.) by a 2-fold broth dilution technique in Mueller Hinton (pH7.4 Biorad). For S. pneumoniae, the medium was supplemented with 2.5% laked horse blood. For H. influenzae, the medium was haemophilus test medium (H.T.M.). Overnight cultures were diluted to obtain the final inoculum of 10^5 cfu/well. Incubation was 37° C. overnight in ambient air. The MIC was defined as the lowest concentration which inhibited all visual growth and expressed in μg/ml. For each bacterial species, all of the molecules were tested in the same experiment in order to give a head-to-head comparison.

S1 = test: MIC determination (bacteria), strain S1; type: cell-based, S. aureus; settings: Table 2, 2-fold broth dilution; for MIC: Staphylococcus aureus
Procedure: as §1

S. aureus membrane = test: In vitro activity in depolarization of S. aureus membrane; type: cell-based; settings: read-out: DEP (IC50)
Source text: (§2) These properties can be determined according to techniques that are well known in the art.

[1] = aqueous solubility at pH 7.4; type: physicochemical; settings: aqueous solubility at pH 7.4 (water with 2% DMSO)
Source text: as §2

[2] = system: S2 (S. aureus 2, MRSA in vivo); test: MIC determination (bacteria), strain S2; type: cell-based; settings: Table 2, 2-fold broth dilution; for MIC: Staphylococcus aureus, MRSA
Procedure: as §1

E2 = test: MIC determination (bacteria), strain E2; type: cell-based, enterococcus; settings: Table 2, 2-fold broth dilution; for MIC: Enterococcus
Procedure: as §1

P9 = test: MIC determination (bacteria), strain P9; type: cell-based, S. pneumoniae; settings: Table 2, 2-fold broth dilution; for MIC: Streptococcus pneumoniae
Procedure: as §1

S26 = test: MIC determination (bacteria), strain S26; type: cell-based, S. aureus; settings: Table 2, 2-fold broth dilution; for MIC: Staphylococcus aureus
Procedure: as §1

E. Coli RNAP = E. Coli RNAP (Escherichia coli, UniProt P0A8T7+P0A8V2); test: In vitro activity against E. Coli RNAP; type: biochemical
Chain of E. Coli RNAP (P0A8V2 whole entry): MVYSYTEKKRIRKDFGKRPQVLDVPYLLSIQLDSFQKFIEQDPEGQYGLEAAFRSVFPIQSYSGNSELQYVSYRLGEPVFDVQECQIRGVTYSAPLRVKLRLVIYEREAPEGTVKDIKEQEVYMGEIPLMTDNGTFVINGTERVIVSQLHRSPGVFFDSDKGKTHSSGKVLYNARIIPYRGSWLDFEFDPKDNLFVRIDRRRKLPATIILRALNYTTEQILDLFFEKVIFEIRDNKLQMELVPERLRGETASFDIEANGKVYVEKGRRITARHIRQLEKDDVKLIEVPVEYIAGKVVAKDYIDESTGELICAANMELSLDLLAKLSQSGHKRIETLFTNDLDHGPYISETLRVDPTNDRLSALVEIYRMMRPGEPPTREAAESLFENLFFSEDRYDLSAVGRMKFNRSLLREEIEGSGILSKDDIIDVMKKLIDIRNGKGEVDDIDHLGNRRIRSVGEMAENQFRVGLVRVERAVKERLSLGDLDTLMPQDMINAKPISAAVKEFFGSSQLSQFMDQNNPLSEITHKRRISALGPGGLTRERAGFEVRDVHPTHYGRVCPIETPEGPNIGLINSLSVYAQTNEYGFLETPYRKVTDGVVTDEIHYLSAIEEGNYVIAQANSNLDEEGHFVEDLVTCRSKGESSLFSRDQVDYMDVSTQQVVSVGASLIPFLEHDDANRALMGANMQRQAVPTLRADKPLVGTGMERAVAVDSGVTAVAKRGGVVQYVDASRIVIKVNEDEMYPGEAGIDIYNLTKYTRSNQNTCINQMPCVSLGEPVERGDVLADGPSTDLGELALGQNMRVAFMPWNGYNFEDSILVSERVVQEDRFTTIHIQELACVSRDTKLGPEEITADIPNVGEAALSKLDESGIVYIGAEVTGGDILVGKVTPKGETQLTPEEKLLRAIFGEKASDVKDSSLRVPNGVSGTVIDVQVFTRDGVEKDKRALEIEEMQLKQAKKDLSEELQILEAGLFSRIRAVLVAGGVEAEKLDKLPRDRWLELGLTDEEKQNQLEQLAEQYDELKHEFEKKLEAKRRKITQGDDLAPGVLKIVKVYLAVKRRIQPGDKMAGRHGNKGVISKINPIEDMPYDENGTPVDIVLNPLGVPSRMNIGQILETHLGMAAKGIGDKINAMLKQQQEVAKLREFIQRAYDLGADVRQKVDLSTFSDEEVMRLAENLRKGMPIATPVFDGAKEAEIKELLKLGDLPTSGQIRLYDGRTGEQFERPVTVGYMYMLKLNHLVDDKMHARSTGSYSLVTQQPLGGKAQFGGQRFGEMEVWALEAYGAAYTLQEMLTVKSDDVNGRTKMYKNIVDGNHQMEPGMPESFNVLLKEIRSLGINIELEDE
Chain of E. Coli RNAP (P0A8T7 whole entry): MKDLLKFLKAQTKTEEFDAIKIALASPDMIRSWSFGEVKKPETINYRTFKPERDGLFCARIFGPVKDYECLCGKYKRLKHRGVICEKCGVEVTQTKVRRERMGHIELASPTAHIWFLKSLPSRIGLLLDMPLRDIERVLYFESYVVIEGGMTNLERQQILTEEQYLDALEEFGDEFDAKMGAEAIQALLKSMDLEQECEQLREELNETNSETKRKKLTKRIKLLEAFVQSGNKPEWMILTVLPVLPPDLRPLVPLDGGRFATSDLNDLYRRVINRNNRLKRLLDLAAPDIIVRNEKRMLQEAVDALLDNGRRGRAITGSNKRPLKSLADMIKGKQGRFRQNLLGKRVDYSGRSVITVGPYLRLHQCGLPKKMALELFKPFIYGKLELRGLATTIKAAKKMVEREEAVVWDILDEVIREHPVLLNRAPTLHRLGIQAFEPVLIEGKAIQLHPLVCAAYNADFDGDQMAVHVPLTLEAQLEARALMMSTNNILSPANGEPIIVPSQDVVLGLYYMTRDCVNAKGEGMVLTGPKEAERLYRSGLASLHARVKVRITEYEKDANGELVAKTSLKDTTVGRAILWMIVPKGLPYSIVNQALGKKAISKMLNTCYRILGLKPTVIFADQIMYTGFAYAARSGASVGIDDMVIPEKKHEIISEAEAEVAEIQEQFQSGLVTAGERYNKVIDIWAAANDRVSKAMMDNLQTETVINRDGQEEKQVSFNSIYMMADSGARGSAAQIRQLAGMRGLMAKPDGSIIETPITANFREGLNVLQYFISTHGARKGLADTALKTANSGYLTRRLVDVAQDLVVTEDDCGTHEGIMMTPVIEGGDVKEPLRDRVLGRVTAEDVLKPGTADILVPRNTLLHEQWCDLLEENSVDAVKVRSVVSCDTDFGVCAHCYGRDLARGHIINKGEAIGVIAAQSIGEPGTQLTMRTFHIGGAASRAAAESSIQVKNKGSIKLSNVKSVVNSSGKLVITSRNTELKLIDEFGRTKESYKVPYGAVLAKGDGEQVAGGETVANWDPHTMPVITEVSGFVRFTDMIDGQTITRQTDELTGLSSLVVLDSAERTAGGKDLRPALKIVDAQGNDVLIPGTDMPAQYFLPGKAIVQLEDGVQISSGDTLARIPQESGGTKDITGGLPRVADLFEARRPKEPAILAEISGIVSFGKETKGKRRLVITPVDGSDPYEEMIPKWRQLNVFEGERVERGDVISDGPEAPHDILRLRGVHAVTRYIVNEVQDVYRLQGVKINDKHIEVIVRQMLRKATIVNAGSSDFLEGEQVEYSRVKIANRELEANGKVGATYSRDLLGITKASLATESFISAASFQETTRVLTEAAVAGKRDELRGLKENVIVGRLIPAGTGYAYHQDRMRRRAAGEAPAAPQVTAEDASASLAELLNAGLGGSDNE
Chain of E. Coli RNAP (P0A7Z4 whole entry partner): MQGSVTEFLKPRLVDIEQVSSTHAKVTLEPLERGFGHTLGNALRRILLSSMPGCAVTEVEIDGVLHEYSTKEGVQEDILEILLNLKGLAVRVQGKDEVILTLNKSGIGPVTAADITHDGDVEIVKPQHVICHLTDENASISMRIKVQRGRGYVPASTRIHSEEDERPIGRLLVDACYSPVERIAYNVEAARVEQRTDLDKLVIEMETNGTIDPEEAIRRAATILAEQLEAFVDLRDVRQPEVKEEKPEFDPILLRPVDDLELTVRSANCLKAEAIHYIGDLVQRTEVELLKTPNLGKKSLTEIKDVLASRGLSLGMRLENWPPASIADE
Chain of E. Coli RNAP (P0A800 whole entry partner): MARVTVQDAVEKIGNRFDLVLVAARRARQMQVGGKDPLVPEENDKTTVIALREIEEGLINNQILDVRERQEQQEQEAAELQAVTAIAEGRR
Source text: as §2

P9B = test: MIC determination (bacteria), strain P9B; type: cell-based, S. pneumoniae; settings: Table 2, 2-fold broth dilution; for MIC: Streptococcus pneumoniae
Procedure: as §1

[3] = system: human embryonic kidney 293 cells; test: in vitro toxicities against human embryonic kidney 293 cells; type: cell-based
Source text: as §2

[4] = system: human peripheral blood cells; test: in vitro toxicities human peripheral blood cells; type: cell-based
Source text: as §2

[5] = system: mammalian_red blood cell membrane; test: In vitro mammalian red blood cell membrane lysis activity; type: cell-based; settings: Active or inactive at 100 μM
Source text: as §2

H4 = test: MIC determination (bacteria), strain H4; type: cell-based, H. influenzae; settings: Table 2 and its footnote f, haemophilus test medium; for MIC: Haemophilus influenzae
Procedure: as §1

P1 = test: MIC determination (bacteria), strain P1; type: cell-based, S. pneumoniae; settings: Table 2, 2-fold broth dilution; for MIC: Streptococcus pneumoniae
Procedure: as §1

S4 = test: MIC determination (bacteria), strain S4; type: cell-based, S. aureus; settings: Table 2, 2-fold broth dilution; for MIC: Staphylococcus aureus
Procedure: as §1

E1 = test: MIC determination (bacteria), strain E1; type: cell-based, enterococcus; settings: Table 2; 2-fold broth dilution
Procedure: as §1

[6] = system: Hek293 / PMBC versus S. aureus 2, MRSA in vivo; test: Selectivity index (LD50 Hek293/PMBC divided by MIC S. aureus 2); type: cell-based; settings: lower LD50 of Hek293 and PMBC (converted to μg/mL) divided by MIC against S. aureus 2, MRSA in vivo
all strains = test: MIC determination (bacteria), whole strain panel of Table 2; type: cell-based
Procedure: as §1

[7] = all strains (S1, S26, S4, S2, E1, E2, P1, P9, P9B, H3, H4), read-out: MIC for all strains

CCCCCCC(=O)N1CC(=O)C(=C(O)CC23CC4CC(CC(C4)C2)C3)C1=O [27i]
MIC H3 (H3): 2 µg/mL (≈ 5.16 µM)
MIC S1 (S1): 0.25 µg/mL (≈ 0.645 µM)
IC50 (S. aureus membrane): > 100 µM
SOL [1]: 67 to 200 µM
MIC S2 [2]: 0.25 µg/mL (≈ 0.645 µM)
MIC E2 (E2): 0.25 µg/mL (≈ 0.645 µM)
MIC P9 (P9): 0.12 µg/mL (≈ 0.31 µM)
MIC S26 (S26): 0.5 µg/mL (≈ 1.29 µM)
IC50 (E. Coli RNAP): 3.1 µM
MIC P9B (P9B): 1 µg/mL (≈ 2.58 µM)
Hek293 (LD50, μM) ([3]; human embryonic kidney 293 cells): 10.1 µM
PMBC (LD50, μM) ([4]; human peripheral blood cells): 30.3 µM
RBCL (IC50, μM) [5]: Active
MIC H4 (H4): 1 µg/mL (≈ 2.58 µM)
MIC P1 (P1): 0.12 µg/mL (≈ 0.31 µM)
MIC S4 (S4): 0.25 µg/mL (≈ 0.645 µM)
MIC E1 (E1): 0.12 µg/mL (≈ 0.31 µM)

Cc1cc(Cl)ccc1OCCC/C(O)=C1\C(=O)CCN(C(=O)c2ccccc2)C1=O [19d]
MIC (H3): 16 µg/mL (≈ 37.4 µM)
MIC (S1): 2 µg/mL (≈ 4.67 µM)
SOL [1]: >300 µM
MIC [2]: 4 µg/mL (≈ 9.35 µM)
MIC (E2): 4 µg/mL (≈ 9.35 µM)
MIC (P9): 1 µg/mL (≈ 2.34 µM)
MIC (S26): 4 µg/mL (≈ 9.35 µM)
MIC (P9B): 4 µg/mL (≈ 9.35 µM)
Hek293 (LD50, μM) ([3]; human): 90.9 µM
PMBC (LD50, μM) ([4]; human): 90.9 µM
MIC (H4): 8 µg/mL (≈ 18.7 µM)
MIC (P1): 2 µg/mL (≈ 4.67 µM)
MIC (S4): 4 µg/mL (≈ 9.35 µM)
SI (Selectivity index) [6]: 9.7

CCC/C=C/C(=O)N1CC(=O)/C(=C(/O)CC2C[C@@H](C(C)=O)C2(C)C)C1=O (stereo partly drawn) [27q]
MIC (H4): 32 µg/mL (≈ 88.5 µM)
MIC (all strains; read-out: MIC against the other strains): > 32 µg/mL

CSCCC1C(=O)/C(=C(/O)C[C@@H]2OC(C)(C)OC2=O)C(=O)N1C(=O)CC(C)CC(C)(C)C (stereo partly drawn) [31h]
MIC (all strains; [7]): > 32 µg/mL

CCCC(=O)N1CC(=O)/C(=C(/O)CCNS(=O)(=O)c2ccccc2)C1=O [28j]
MIC (all strains; [7]): > 32 µg/mL

CSCCC1C(=O)/C(=C(/O)CC2CC3CCC2C3)C(=O)N1C(=O)CC(C)CC(C)(C)C (stereo not drawn) [31g]
MIC (H3): 32 µg/mL (≈ 71.2 µM)
MIC (S1): 0.12 µg/mL (≈ 0.267 µM)
IC50 (S. aureus membrane; Staphylococcus aureus): > 100 µM
SOL [1]: >300 µM
MIC [2]: 0.5 µg/mL (≈ 1.11 µM)
MIC (E2): 0.25 µg/mL (≈ 0.556 µM)
MIC (P9): 0.25 µg/mL (≈ 0.556 µM)
MIC (S26): 0.5 µg/mL (≈ 1.11 µM)
IC50 (E. Coli RNAP): > 100 µM
MIC (P9B): 2 µg/mL (≈ 4.45 µM)
Hek293 (LD50, μM) ([3]; human): 10.1 µM
PMBC (LD50, μM) ([4]; human): 30.3 µM
RBC membrane lysis activity (active/inactive) [5]: Active
MIC (H4): 2 µg/mL (≈ 4.45 µM)
MIC (P1): 0.5 µg/mL (≈ 1.11 µM)
MIC (S4): 0.5 µg/mL (≈ 1.11 µM)
SI (Selectivity index) [6]: <9.1

CCCCCCC/C=C/C(=O)N1C(=O)/C(=C(\O)C[C@@H]2OC(C)(C)OC2=O)C(=O)C1CC(C)C (stereo partly drawn) [30c]
IC50 (E. Coli RNAP): 85 µM
MIC (all strains; [7]): > 32 µg/mL
